Laboratory results as given in patent publication US20220306695A1, “COMPSTATIN ANALOGUES AND THEIR MEDICAL USES” (priority 2019, published 2022).
Where two headings read alike, the source gives them in different places. Starred links: 1 amine or outer side, 2 acyl side, 3 side chain; linkers in the order of their positions; H or OH if unused. Positions of bridges follow the written chain, without caps; N, C: chain ends. Non-standard residues stand in square brackets, D forms with d. Residues, ends and D or L forms follow the SMILES beside them. Groups on a side chain read outwards from the residue. *: point of attachment. Trp(1-Me) = Cn1cc(C[C@H](N)C(=O)O)c2ccccc21; Abu(4-yl) = O=C([C@H](CC[*:3])N[*:1])[*:2]; C18 diacid = O=C(O)CCCCCCCCCCCCCCCCC(=O)*; γGlu = O=C(O)[C@H](CCC(=O)[*:2])N[*:1]; AEEA = NCCOCCOCC(=O)O; Sar = CNCC(=O)O

What was measured:
[1] = system: classical complement pathway; experiment: In vitro haemolysis assay (inhibition of classical complement pathway); format: cell-based, human; settings: Table 3; human serum, sensitized sheep red blood cells; read-out: IC50[nM], in vitro analysis of inhibition of hemolysis
Procedure, shortened: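 Serially diluted compound (9 points) was preincubated 15 min at room temperature with diluted human serum, titrated per batch to give 70-90% maximal haemolysis, in Tris/casein buffer pH 7.4 with Mg2+/Ca2+. Antibody-sensitized sheep erythrocytes were then added for 30 min at 37° C, and the reaction was stopped with EDTA. Haemolysis was read at A405, with IC50 from 4PL fit.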

[2] = Solubility test at 10 mg/mL (visual inspection and light scattering); format: physicochemical
in vivo = experiment: in vivo; parameters: species or system Cynomolgus monkeys (Macaca fascicularis); settings: male, cynomolgus monkey, sc, 1840 nmol/kg, t½
Experimental: Healthy male Cynomolgus monkeys (Macaca fascicularis) received single subcutaneous administrations of each test substance. Compounds were formulated in 20 mM phosphate adjusted with NaOH to pH 7.5 and mannitol for isotonicity and dosed at 1840 nmol/kg. Blood was collected from a femoral vein from each animal at the following times: Pre-dose, 1, 2, 4, 8, 24, 48, 72, 96 and 120 h (10 sampling times). Blood was collected into serum separation tubes and allowed to clot at room temperature. The tubes were centrifuged and resulting serum was aliquoted and snap-frozen over dry-ice and stored at nominally −80° C. until analysis. All NHP studies were performed in accordance with animal welfare laws and regulations, including approval of the study by a local ethical review process.
In order to assess pharmacokinetic half-life (t %/), serum samples isolated from non-human primates at specific time points after dosing were analysed for total drug compound after sample preparation by solid phase extraction (SPE) and liquid chromatography mass spectrometry (LC-MS/MS) using analogue internal standard. Single measurement of serum concentrations were used for calculation of the pharmacokinetic parameters using the non-compartmental approach in Phoenix WinNonlin 6.3. Plasma terminal elimination half-life (ty) was determined as In(2)/λz where λz is the magnitude of the slope of the log linear regression of the log concentration versus time profile during the terminal phase.

[3] = format: physicochemical; settings: 50 mg/mL peptide; for Covalent oligomer content after 14 days 40° C. (%), F1 / Purity after 14 days 40° C. (%), F1: F1: 20 mM phosphate pH 5.5; for Covalent oligomer content after 14 days 40° C. (%), F1 / Covalent oligomer content after 14 days 40° C. (%), F2: denaturing SEC; for Purity after 14 days 40° C. (%), F1 / Purity after 14 days 40° C. (%), F2 / Purity after 14 days 40° C. (%), F3: normalized purity (HPLC)
Experimental: Chemical stability of compstatin analogues with cystathionine or disulfide bridge. Stability was assessed in three formulations at 50 mg/mL peptide, F1:20 mM phosphate pH 5.5, F2:20 mM phosphate pH 6.5 and F3:20 mM phosphate pH 7.5. The formulations were prepared by direct dissolution of peptide from lyophilized portions in the respective formulations. pH was adjusted to target with 1 M NaOH and 1 M HCl. Chemical stability was assessed under accelerated conditions (14 days, 40° C.) and evaluated as change in purity by reverse phase HPLC, and change in covalent oligomer content by denaturing SEC. The formulations were placed at 40° C. with analysis points at T=0, 7 and 14 days. On each time point a small volume was extracted and diluted to 2 mg/mL and tested by reverse phase HPLC and denaturing SEC. Purity was assessed by reverse phase HPLC using an Ultimate 3000 system for binary gradient application equipped with a Kinetix C18 column (cat. no. 00F-4462-Y0, 150 mm×3 mm, 2.6 μm) run at 0.5 ml/min with a gradient of buffer A (0.3% TFA, aq.) and buffer B (0.3% TFA, 90% MeCN, aq.) gradient from 40% B to 70% B over 20 min. Detection was done using a diode array detector set to 220 nm. Covalent oligomer formation was assessed by denaturing SEC (size exclusion chromatography) using an Ultimate 3000 system equipped with a TSKgel SuperSW 2000 column (cat. no. 818674, 300 mm×3 mm, 4 μm) run at 0.5 ml/min with isocratic flow of buffer A (0.1% TFA, 45% MeCN, aq.), 10 min. Detection was done using a diode array detector set to 215 nm. Compounds 126 and 156 were carefully weighed out and dissolved in formulations F1, F2 and F3 to a target concentration of 50 mg/mL. Once visually dissolved, concentration was confirmed by absorbance at 280 nm, and samples were placed in stability at 40° C. Samples for analysis were extracted on T=0, 7 and 14 days from a 40° C. climate chamber. The extracted volume was dissolved 1:25 (final concentration: 2 mg/mL) in 20 mM phosphate pH 5.5, 6.5 or 7.5 and measured by reverse phase HPLC and denaturing SEC by injection of 0.4 μL (column load […]). The resulting chromatograms were integrated to determine chemical purity by reverse phase HPLC and covalent oligomer content by denaturing SEC.

Row | half-life (in vivo) | Covalent oligomer content after 14 days 40° C. (%), F1 [3] | Purity after 14 days 40° C. (%), F1 [3] | Covalent oligomer content after 14 days 40° C. (%), F2 ([3]; F2: 20 mM phosphate pH 6.5) | Purity after 14 days 40° C. (%), F2 ([3]; F2: 20 mM phosphate pH 6.5) | Covalent oligomer content after 14 days 40° C. (%), F2 ([3]; F3: 20 mM phosphate pH 7.5) | Purity after 14 days 40° C. (%), F3 ([3]; F3: 20 mM phosphate pH 7.5) | Structure (SMILES) | IC50 [1] | Solubility, Condition 1 Acetate pH 4 ([2]; 10 mg/mL compound in 100 mM acetate pH 4) | Solubility, Condition 2 Acetate pH 5 ([2]; 10 mg/mL compound in 100 mM acetate pH 5) | Solubility, Condition 3 Phosphate pH 6 ([2]; 10 mg/mL compound in 100 mM phosphate pH 6) | Solubility, Condition 4 Phosphate pH 7 ([2]; 10 mg/mL compound in 100 mM phosphate pH 7) | Solubility, Condition 5 Phosphate pH 7.5 ([2]; 10 mg/mL compound in 100 mM phosphate pH 7.5)
1 | 157 h | 30% | 80% | 77% | 24% | 61% | 33% | CC[C@H](C)[C@@H]1NC(=O)[C@@H](NC(=O)[C@H](Cc2ccc(O)cc2)NC(=O)[C@H](C)NC(=O)[C@H](CO)NC(=O)CNC(=O)[C@H](CCC(=O)O)NC(C)=O)CSSC[C@@H](C(=O)N(C)CC(=O)N[C@@H](CCC(=O)O)C(=O)N[C@@H](CCCCN)C(=O)N[C@@H](CCC(=O)N[C@@H](CCCCNC(=O)COCCOCCNC(=O)COCCOCCNC(=O)CC[C@H](NC(=O)CCCCCCCCCCCCCCCCC(=O)O)C(=O)O)C(N)=O)C(=O)O)NC(=O)[C@H](CCCNC(=N)N)NC(=O)[C@H](Cc2c[nH]cn2)NC(=O)[C@H](CCC(=O)O)NC(=O)CNC(=O)[C@H](Cc2c[nH]c3ccccc23)NC(=O)[C@H](CC(=O)O)NC(=O)[C@H](CCC(N)=O)NC(=O)[C@H](Cc2cn(C)c3ccccc23)NC1=O [Compound 111] (Ac-EGSAYCI[Trp(1-Me)]QDWGEHRC[Sar]EK[γGlu]K([AEEA-AEEA-γGlu-C18 diacid])-NH2; disulfide 6-16) | < 100 nM | − (denotes lack of solubility at the given condition, as UV absorbance at 340 nm exceeds 0.1 AU and/or it is visibly turbid or contains particles.) | − (denotes lack of solubility at the given condition, as UV absorbance at 340 nm exceeds 0.1 AU and/or it is visibly turbid or contains particles.) | + (denotes solubility at the given condition, as determined by UV absorbance being less than 0.1 AU at 340 nm and the sample being clear when manually inspected.) | + (denotes solubility at the given condition, as determined by UV absorbance being less than 0.1 AU at 340 nm and the sample being clear when manually inspected.) | + (denotes solubility at the given condition, as determined by UV absorbance being less than 0.1 AU at 340 nm and the sample being clear when manually inspected.)
2 | 143 h | 63% | 50% | 64% | 37% | 56% | 45% | CC[C@H](C)[C@@H]1NC(=O)[C@@H](NC(=O)[C@H](Cc2ccccc2)NC(=O)[C@H](CCC(=O)O)NC(=O)[C@H](CO)NC(C)=O)CSSC[C@@H](C(=O)N[C@H](C(=O)N[C@@H](CCC(=O)O)C(=O)NCC(=O)N[C@@H](CCC(=O)O)C(=O)NCCOCCOCC(=O)N[C@@H](CCC(=O)O)C(=O)N[C@@H](CO)C(=O)N[C@@H](CCCCNC(=O)CC[C@H](NC(=O)CCCCCCCCCCCCCCCCC(=O)O)C(=O)O)C(N)=O)[C@@H](C)O)NC(=O)[C@H](CCCNC(=N)N)NC(=O)[C@H](Cc2c[nH]cn2)NC(=O)[C@H](CCC(=O)O)NC(=O)CNC(=O)[C@H](Cc2c[nH]c3ccccc23)NC(=O)[C@H](CC(=O)O)NC(=O)[C@H](CCC(N)=O)NC(=O)[C@H](Cc2cn(C)c3ccccc23)NC1=O [Compound 142] (Ac-SEFCI[Trp(1-Me)]QDWGEHRCTEGE[AEEA]ESK([γGlu-C18 diacid])-NH2; disulfide 4-14) | < 100 nM | – | – | – | – | –
3 | 108 h | 0.6% | 98% | 0.1% | 99% | 0.2% | 99% | CC[C@H](C)[C@@H]1NC(=O)[C@@H](NC(=O)[C@H](Cc2ccccc2)NC(=O)[C@H](CCC(=O)O)NC(=O)[C@H](CO)NC(C)=O)CSCC[C@@H](C(=O)N(C)CC(=O)N[C@@H](CCC(=O)O)C(=O)NCCOCCOCC(=O)NCCOCCOCC(=O)N[C@@H](CCCCNC(=O)CC[C@H](NC(=O)CNC(=O)CC[C@H](NC(=O)CCCCCCCCCCCCCCCCC(=O)O)C(=O)O)C(=O)O)C(N)=O)NC(=O)[C@H](CCCNC(=N)N)NC(=O)[C@H](Cc2c[nH]cn2)NC(=O)[C@H](CCC(=O)O)NC(=O)CN(C)C(=O)[C@H](Cc2c[nH]c3ccccc23)NC(=O)[C@H](CC(=O)O)NC(=O)[C@H](CCC(N)=O)NC(=O)[C@H](Cc2cn(C)c3ccccc23)NC1=O [Compound 147, Ac-SEFA(1)I[1-Me-Trp]QDW[Sar]EHRhC(1)[Sar]E[Peg3][Peg3]-K([17-carboxy-heptadecanoyl][γGlu]G[γGlu])-NH2] (Ac-SEFCI[Trp(1-Me)]QDW[Sar]EHR[Abu(4-yl)][Sar]E[AEEA][AEEA]K([γGlu-Gly-γGlu-C18 diacid])-NH2; thioether 4-14) | < 100 nM | – | – | – | – | –
4 | 120 h | 0.7% | 98% | 0.1% | 100% | 0.1% | 100% | CC[C@H](C)[C@@H]1NC(=O)[C@@H](NC(=O)[C@H](Cc2ccccc2)NC(=O)[C@H](CCC(=O)O)NC(=O)[C@H](CO)NC(C)=O)CSCC[C@@H](C(=O)N(C)CC(=O)N[C@@H](CCC(=O)O)C(=O)NCC(=O)N[C@@H](CCC(=O)O)C(=O)NCCOCCOCC(=O)N[C@@H](CCC(=O)O)C(=O)N[C@@H](CO)C(=O)N[C@@H](CCCCNC(=O)CC[C@H](NC(=O)CNC(=O)CC[C@H](NC(=O)CCCCCCCCCCCCCCCCC(=O)O)C(=O)O)C(=O)O)C(N)=O)NC(=O)[C@H](CCCNC(=N)N)NC(=O)[C@H](Cc2c[nH]cn2)NC(=O)[C@H](CCC(=O)O)NC(=O)CN(C)C(=O)[C@H](Cc2c[nH]c3ccccc23)NC(=O)[C@H](CC(=O)O)NC(=O)[C@H](CCC(N)=O)NC(=O)[C@H](Cc2cn(C)c3ccccc23)NC1=O [Compound 150, Ac-SEFA(1)I[1-Me-Trp]QDW[Sar]EHRhC(1)[Sar]EGE[Peg3]ES-K([17-carboxy-heptadecanoyl][γGlu]G[γGlu])-NH2] (Ac-SEFCI[Trp(1-Me)]QDW[Sar]EHR[Abu(4-yl)][Sar]EGE[AEEA]ESK([γGlu-Gly-γGlu-C18 diacid])-NH2; thioether 4-14) | < 100 nM | – | – | – | – | –
